Reference: paper PMC9296036, “A peptide interfering with the dimerization of oncogenic KITENIN protein and its stability suppresses colorectal tumour progression” (Clinical and Translational Medicine, 2022)
Ends that are not written are not given here.

System: Caco2/KITENIN cells
Assay: Transwell cell invasion assay, Caco2/KITENIN cells
Assay type: cell-based
Settings: Caco2 cells transfected with KITENIN-V5, KDIP versus scrambled peptide
Method: Cell invasion was measured using the transwell migration apparatus as described.[18] Briefly, cultured cells were seeded into the top of a 24‐well invasion chamber assay plate (Costar). Conditioned DMEM medium containing 10 μg/ml of fibronectin (Calbiochem) and 1% FBS was added to the bottom chamber as a chemoattractant. After 16 h (Caco2) or 48 h (HCT116) of incubation, the cells were stained. Cells at the top surface of the filters were wiped off with a cotton ball, and migrated cells on the bottom surface were counted in four random squares of .5 mm × .5 mm on each filter. The results are shown as the mean ± SEM of the number of cells per field for at least three independent experiments.
Effect of KAI1 C‐terminal interacting tetraspanin (KITENIN) dimerization‐interfering peptide (KDIP) on tumour growth and metastasis in in vivo mouse model of colorectal cancer (CRC). […] For the evaluation of metastasis, total fluorescence emitted from liver nodules expressing iRFP was measured and counted (left panel) or metastatic tumour growth was counted as nodules that migrated to the surface of the liver, and a metastatic score was obtained by multiplying it with size (middle panel). Metastatic score or total fluorescence is represented as mean ± SEM. […] The quantitative amount of each protein was measured by densitometry and is represented as an arbitrary score (mean ± SEM, n = 6). […]

## YARVRRRGPRRWRLVSDEAV [KDIP]
  cellular invasion by overexpressed KITENIN (in words): reduced
